From article PMC3537624, “Functional Characterization of the Short Neuropeptide F Receptor in the Desert Locust, Schistocerca gregaria” (PLoS ONE, 2013)
“Also recorded” adds a separate entry of the source. Where a SMILES comes first, the peptide text is derived from it.

How the values were obtained:
[1] = test system: Schgr-sNPFR; assay: Calcium assay, aequorin bioluminescence in CHO-WTA11-Schgr-sNPFR cells (promiscuous Gα16); type: cell-based, Schistocerca gregaria; settings: for EC50: CHO-WTA11 cells with Gα16, aequorin/coelenterazine h luminescence, 30 s read, ± (95% confidence interval), three independent measurements in duplicate
Experimental: (§1) Three cell lines were used in this study. General receptor studies were performed in Chinese Hamster Ovary (CHO)-WTA11 cells, a clone of CHO cells stably coexpressing the promiscuous Gα16 and apoaequorin. To determine the mode of downstream signalling, we used either CHO-PAM28 cells, a clone of CHO cells expressing apoaequorin but not the promiscuous Gα16, or Human Embryonic Kidney (HEK) 293T cells, expressing neither Gα16 nor apoaequorin. All cell lines used in this study were provided by Prof. Dr. M. Parmentier and Dr. M. Dethreux (Université Libre de Bruxelles) and Euroscreen S.A., Belgium.
(§2) The cells were cultured in monolayer, in Dulbecco’s Modified Eagle Medium Nutrient Mixture F12-Ham (DMEM/F12, Invitrogen) containing 10% fetal calf serum (Invitrogen), 100 IU/ml penicillin/streptomycin (Invitrogen). For the CHO-WTA11 cells, 250 µg/ml Zeocin™ (Invitrogen) was added to the medium, while to the medium of CHO-PAM28 cells, 5 µg/ml Puromycin (Invitrogen) was added. The cells were grown at 37°C, with a constant supply of 5% CO2 and split every 3 days.
Transfections with either Schgr-sNPFR/pcDNA3.1D or empty pcDNA3.1D vector were performed in T75 flasks at ca. 60% confluency. […]
In the calcium-assays, CHO-WTA11 or CHO-PAM28 cells expressing the Schgr-sNPFR were detached two days after transfection, counted using the NucleoCounter® NC-100™ (Chemometec), and resuspended in DMEM/BSA (DMEM/F12, 10 mM HEPES, 0.1% bovine serum albumin) at a concentration of 5×10^5 cells/ml. […]
After incubation, the cell suspension was injected in wells containing a peptide solution, dissolved in 50 µl BSA medium. […] Light emission was monitored using a Mithras LB 940 Microplate Reader (Berthold technologies).
(§3) Data generated in these experiments were analysed using GraphPad Prism 5 (GraphPad Software).
As putative ligands for the cloned Schistocerca gregaria sNPF receptor, Schgr-sNPF (SNRSPSLRLRFa), Schgr-sNPF^4−11 (SPSLRLRFa) and Schgr-trNPF (YSQVARPRFa) were tested. […] For each of these peptides, the dose-dependent activation of the Schgr-sNPFR was studied in CHO-WTA11 cells and EC50 values were calculated.

[2] = test system: Schgr-sNPFR; assay: cAMP assay, CRE-luciferase bioluminescence in HEK-293T-Schgr-sNPFR cells; type: cell-based, Schistocerca gregaria; settings: HEK 293T cells; for IC50: 200 µM IBMX + NKH 477, 3 h at 37°C, three independent measurements in duplicate, read-out: IC50 (inhibition of CRE-luciferase reporter expression); for inhibition of the reporter expression (result in words): CRE-luciferase, 200 µM IBMX + NKH 477
Experimental: as §1, §2
(§4) Transfections with either Schgr-sNPFR/pcDNA3.1D or empty pcDNA3.1D vector were performed in T75 flasks at ca. 60% confluency. Transfection reagent was prepared by combining 2,5 ml of DMEM/F12, 5 µg of the plasmid DNA and 12.5 µl of PLUS™ Reagent (Invitrogen). After storing the medium at room temperature for 5 minutes, 30 µl Lipofectamine™ LTX (Invitrogen) was added and the transfection medium was added dropwise into 3 ml of culture medium after 30 minutes incubation at room temperature. HEK 293T cells were cotransfected with a reporter construct, consisting of a luciferase gene situated downstream of a cyclic AMP (cAMP) response element (CRE) and promoter.
HEK 293T cells, cotransfected with the Schgr-sNPFR/pcDNA3.1 vector and the CRE-luciferase construct, were detached two days after transfection, centrifuged and resuspended to a concentration of 10^6 cells/ml in DMEM/F12 containing 200 µM 3-isobutyl-1-methylxanthine (IBMX; Sigma-Aldrich). Fifty µl of this suspension was introduced into in each well of a 96-well-plate. When studying stimulatory effects, peptides were dissolved in DMEM/F12 containing 200 µM IBMX. When studying inhibitory effects, these peptides were dissoved in DMEM/F12 supplemented with 200 µM IBMX and 20 µM NKH 477 (a water-soluble analogue of forskolin; Sigma-Aldrich). […] Light emission, resulting from the luciferase activity, was measured for 5 s/well using the Mithras LB 940 Microplate Reader.
as §3
The possible effect of receptor activation on intracellular cyclic AMP (cAMP) production was analysed in HEK 293T cells that were cotransfected with a CRE-luciferase reporter construct.

[3] = test system: adult locusts; assay: Peptide injection feeding assay (food uptake); type: in vivo, Schistocerca gregaria; settings: for reduction of food uptake: 2 µl of 100 µg/ml injected dorsally, cabbage for one hour, vs saline, n = 20; for effect on food uptake (result in words): normalized to body mass, mean, n = 20, ANOVA with Tukey
Experimental: The desert locusts used in this study were all gregarious adult animals. They were reared under crowded conditions at a constant temperature (32±1°C) and photoperiod (14 h). The locusts were kept at high density (>200 locusts per cage) and fed daily with cabbage and dry oat flakes. In an effort to normalize feeding responses, locusts used in feeding experiments were placed in separate cages and placed on a controlled dietary regimen one week prior to the assay. Locusts were fed for two hours each day (9 h–10 h, 16 h–17 h).
At 9 AM, 2 µl of a 100 µg/ml peptide solution (experimental condition) or saline solution (negative control) was injected dorsally between the first and second abdominal segments using a 710 RN injector (Hamilton). Pieces of cabbage were weighed in advance and presented to the locusts for one hour, after which all animals had stopped feeding. In parallel, similar pieces of cabbage were put in empty cages during the period of the experiment. The relative weight loss of these pieces was used to estimate the effect of evaporation All cabbage leafs were weighed after the feeding assay, total food uptake was calculated and corrected for the weight that was lost by evaporation. The results were analysed using GraphPad Prism 5 (GraphPad Software).

[4] = test system: Schgr-sNPFR; assay: Calcium assay, aequorin bioluminescence in CHO-PAM28-Schgr-sNPFR cells (no Gα16); type: cell-based, Schistocerca gregaria; settings: for EC50: CHO-PAM28 cells without Gα16, aequorin bioluminescence, three independent measurements in duplicate; for maximum response (aequorin bioluminescence): Schgr-sNPF and Schgr-sNPF^4−11 compared with each other
Experimental: as §1, §2, §4
In the calcium-assays, CHO-WTA11 or CHO-PAM28 cells expressing the Schgr-sNPFR were detached two days after transfection, counted using the NucleoCounter® NC-100™ (Chemometec), and resuspended in DMEM/BSA (DMEM/F12, 10 mM HEPES, 0.1% bovine serum albumin) at a concentration of 5×10^5 cells/ml. Cells where then shielded from light and incubated for 4 h with 5 µM coelenterazine h (Invitrogen), allowing the aequorin holoenzyme to be reconstituted.
After incubation, the cell suspension was injected in wells containing a peptide solution, dissolved in 50 µl BSA medium. After 30 s, 50 µl of 0.1% Triton X-100 was injected, lysing the cells and thus serving as an internal reference. Wells containing no peptide but DMEM/BSA were used as a negative control while wells containing 1 µM ATP were used as a positive control. Light emission was monitored using a Mithras LB 940 Microplate Reader (Berthold technologies).
as §3
These two peptides were then further studied with respect to their mode of intracellular signalling. Cell based assays were performed using a CHO-PAM28 cell line, expressing apoaequorin, allowing the detection of increases in the intracellular concentration of calcium ions. […] The calculated EC50 values were both in the nanomolar range.

| Compound | activation of the receptor (result in words) ([1]; CHO-WTA11 cells, aequorin bioluminescence) | EC50 [1] | IC50 [2] | inhibition of the reporter expression (result in words) [2] | reduction of food uptake [3] | effect on food uptake (result in words) ([3]; ** p<0.01, *** p<0.001) | effect on food uptake (result in words) ([3]; ** p<0.01, *** p<0.001, listed as sNPF) | increase of aequorin bioluminescence ([4]; CHO-PAM28 cells) | EC50 [4] | maximum response (aequorin bioluminescence) ([4]; CHO-PAM28 cells) | agonist character with respect to calcium response ([4]; CHO-PAM28 cells, maximum response lower than that of Schgr-sNPF^4−11) | effect on food uptake (result in words) ([3]; ** p<0.01, *** p<0.001, listed as sNPF^4−11) |
| --- | --- | --- | --- | --- | --- | --- | --- | --- | --- | --- | --- | --- |
| YSQVARPRFa [Schgr-trNPF, truncated form of Schgr-neuropeptide F, …a] | No dose-dependent response was observed; also recorded: not responsive | – | – | – | – | – | – | – | – | – | – | – |
| SNRSPSLRLRFa [Schgr-sNPF, Schistocerca gregaria short neuropeptide F, […]a] | – | 2.05 ± 0.63 nM | 0.0763 ± 0.0261 nM | highly effective | 30% | significant decrease of food uptake | significant decrease in food uptake | dose-dependent increase of aequorin bioluminescence | 3.28 ± 2.2 nM | markedly lower than that of Schgr-sNPF^4−11 | partial agonist | – |
| CC(C)C[C@H](NC(=O)[C@H](CCCNC(=N)N)NC(=O)[C@H](CC(C)C)NC(=O)[C@H](CO)NC(=O)[C@@H]1CCCN1C(=O)[C@@H](N)CO)C(=O)N[C@@H](CCCNC(=N)N)C(=O)N[C@@H](Cc1ccccc1)C(N)=O [Schgr-sNPF^4−11] (H-SPSLRLRF-NH2) | – | 5.56 ± 1.8 nM | 0.0955 ± 0.0323 nM | highly effective | 37% | significant decrease of food uptake | – | dose-dependent increase of aequorin bioluminescence | 32.2 ± 18.2 nM | markedly higher than those obtained with Schgr-sNPF | – | significant decrease in food uptake |
